Consider four compounds from publication PMC3295651, “Delineation of the Pasteurellaceae-specific GbpA-family of glutathione-binding proteins” (BMC Biochemistry, 2011).

Holding throughout (assay): Thermofluor thermal shift (Sypro orange)
What all share (assay type): binding
In general terms: Differential scanning fluorimetry follows unfolding on heating by fluorescence.

Experiment [1] addresses T1, GbpAHi (Haemophilus influenzae, UniProt P33950).
T1 construct: gene hbpA; soluble non-lipidated form; leader replaced by PelB; his-tag
An excerpt: Thermofluor thermal shift (Sypro orange) on GbpAHi

For experiment [2], the target named is T2, hbpA (Actinobacillus pleuropneumoniae, UniProt A3N3U8, C22M).
T2 construct: soluble non-lipidated form; mature start at position 22; C-terminal his-tag; E. coli, pET20b
T2 sequence (A3N3U8 22-545 C22M): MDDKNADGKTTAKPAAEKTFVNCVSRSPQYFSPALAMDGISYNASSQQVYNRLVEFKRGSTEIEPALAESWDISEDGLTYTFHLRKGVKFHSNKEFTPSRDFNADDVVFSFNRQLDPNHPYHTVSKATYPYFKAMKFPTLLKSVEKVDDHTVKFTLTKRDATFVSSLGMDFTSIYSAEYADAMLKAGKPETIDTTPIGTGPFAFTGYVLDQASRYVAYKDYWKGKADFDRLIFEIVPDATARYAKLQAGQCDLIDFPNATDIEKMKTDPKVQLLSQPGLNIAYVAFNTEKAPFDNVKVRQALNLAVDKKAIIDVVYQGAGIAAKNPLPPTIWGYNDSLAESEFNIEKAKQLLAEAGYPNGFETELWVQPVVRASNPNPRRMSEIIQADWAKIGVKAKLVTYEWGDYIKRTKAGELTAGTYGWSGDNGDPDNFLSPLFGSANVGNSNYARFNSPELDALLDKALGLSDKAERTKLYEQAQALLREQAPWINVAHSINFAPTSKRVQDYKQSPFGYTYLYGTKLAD
To be noted: read-out: GbpAAp. An excerpt:
Thermofluor thermal shift (Sypro orange) on GbpAAp

Experiment [3] deals with T3, GbpAHp (Glaesserella parasuis, UniProt B8F653).
T3 construct: gene hbpA; non-lipoprotein; leader replaced by PelB; his-tag
T3 sequence (B8F653 23-531): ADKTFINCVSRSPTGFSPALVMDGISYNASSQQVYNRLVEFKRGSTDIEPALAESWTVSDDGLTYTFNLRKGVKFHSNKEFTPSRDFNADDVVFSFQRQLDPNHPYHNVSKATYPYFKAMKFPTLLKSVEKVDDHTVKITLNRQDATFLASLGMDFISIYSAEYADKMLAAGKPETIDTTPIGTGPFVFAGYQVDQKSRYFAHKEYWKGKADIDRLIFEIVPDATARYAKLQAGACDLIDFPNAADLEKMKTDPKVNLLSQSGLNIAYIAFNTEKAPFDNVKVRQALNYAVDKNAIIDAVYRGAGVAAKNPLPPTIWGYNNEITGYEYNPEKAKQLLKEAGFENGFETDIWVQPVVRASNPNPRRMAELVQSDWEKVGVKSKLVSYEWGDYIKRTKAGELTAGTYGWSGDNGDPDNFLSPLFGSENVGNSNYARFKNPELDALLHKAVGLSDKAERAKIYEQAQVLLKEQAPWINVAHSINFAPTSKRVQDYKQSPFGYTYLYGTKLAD
An excerpt: Thermofluor thermal shift (Sypro orange) on GbpAHp

T1 sequence (P33950 19-547): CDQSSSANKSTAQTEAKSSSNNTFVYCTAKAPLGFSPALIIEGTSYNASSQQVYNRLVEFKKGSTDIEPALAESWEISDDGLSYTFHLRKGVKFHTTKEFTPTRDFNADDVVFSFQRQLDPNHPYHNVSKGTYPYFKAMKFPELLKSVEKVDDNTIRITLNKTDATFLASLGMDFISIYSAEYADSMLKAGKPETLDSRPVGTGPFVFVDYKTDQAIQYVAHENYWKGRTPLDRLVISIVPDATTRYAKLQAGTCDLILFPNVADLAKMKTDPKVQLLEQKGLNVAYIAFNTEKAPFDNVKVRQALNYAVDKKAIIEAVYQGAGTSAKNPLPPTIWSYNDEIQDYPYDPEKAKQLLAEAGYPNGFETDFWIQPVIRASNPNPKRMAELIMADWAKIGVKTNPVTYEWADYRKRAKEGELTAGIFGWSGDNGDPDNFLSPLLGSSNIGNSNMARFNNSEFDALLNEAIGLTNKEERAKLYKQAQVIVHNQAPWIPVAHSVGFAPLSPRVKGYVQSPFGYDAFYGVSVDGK

`N[C@@H](CCC(=O)N[C@@H](CS)C(=O)NCC(=O)O)C(=O)O` [GSH]: in experiment [1], the ΔTm at 1000 µM came out at 12.5 °C.

Consider `CSC[C@H](NC(=O)CC[C@H](N)C(=O)O)C(=O)NCC(=O)O` [S-methylglutathione], for which, in experiment [1], the ΔTm at 1000 µM amounted to 10.5 °C.

As to `N[C@@H](CCC(=O)N[C@@H](CSN=O)C(=O)NCC(=O)O)C(=O)O` [S-nitrosoglutathione], the ΔTm at 1000 µM is 6.5 °C in experiment [2], 7 °C in experiment [1] and 9.5 °C in experiment [3].

As to `N[C@@H](CCC(=O)N[C@@H](CSSC[C@H](N)C(=O)O)C(=O)NCC(=O)O)C(=O)O` [glutathione cysteine disulfide], the results for the ΔTm at 1000 µM in experiment [2], in experiment [1] and in experiment [3] were 6 °C, 10 °C and 7 °C, respectively.
